B1: Fms-related tyrosine kinase 3 ligand (protein, UniProt P49772 27-232, looked up)
Fms-related tyrosine kinase 3 …: GTPDCYFSHSPISSNFKVKFRELTDHLLKDYPVTVAVNLQDEKHCKALWSLFLAQRWIEQLKTVAGSKMQTLLEDVNTEIHFVTSCTFQPLPECLRFVQTNISHLLKDTCTQLLALKPCIGKACQNFSRCLEVQCQPDSSTLLPPRSPIALEATELPEPRPRQLLLLLLLLLPLTLVLLAAAWGLRWQRARRRGELHPGVPLPSHP
notes: recombinant murine cytokine (Peprotech) released from PLG matrices
B2: CCL20 (protein, UniProt O89093 28-97, looked up)
C-C motif chemokine 20: ASNYDCCLSYIQTPLPSRAIVGFTRQMADEACDINAIIFHTKKRKSVCADPKQNWVKRAVNLLSLRVKKM
notes: as for B1

Assays:
B16-F10 melanoma cells [1] = test: Example 7: therapeutic vaccination of established B16-F10 melanoma
Description: To assess PLG vaccine efficacy in the therapeutic setting, C57/BL6J mice were challenged with a subcutaneous injection of 5×10^5 B16-F10 melanoma cells (ATCC, Manassas, N.J.) in the back of the neck. At day 9 after tumor challenge PLG vaccines loaded with 3000 ng GM-CSF in combination with 100 μg of CpG-ODN, MPLA or P(I:C), and tumor lysates were implanted subcutaneously into the lower left flank of C57BL/6J mice. A subset of mice were vaccinated again 10 days after the initial vaccination (Days 19 and 23).
Mice challenged with 5×10^5B16-F10 melanoma cells were subsequently vaccinated at days 9 and 19, after tumors were established.

IL-12p70 = test: Example 7: cytokine concentrations at implant site; format: in vivo, C57BL/6J mice; settings: with GM-CSF
Description: To determine in vivo IL-12p70 concentration at the matrix implant site, adjacent tissue was excised and digested with tissue protein extraction reagent. After centrifugation, the concentrations of IL-12, in the supernatant were then analyzed with ELISA (R&D systems), according to the manufacturer's instructions.

B16-F10 tumors = test: Example 7: tumor infiltrating leukocyte (TIL) characterization; design: species or system C57BL/6J mice; settings: mouse, in vivo
Description: On the indicated days, B16-F10 tumors were removed from mice, and digested in 1 mg/mL collagenase II (250 U/ml) (Worthington, Lakewood, N.J.) and 0.1 mg/mL DNase for 1 hour at 37° C. Dissociated cells were filtered through a 40-μm filter, and directly stained with antibodies for phenotype characterization by fluorescence-activated cell sorting (FACS) analysis. APC-anti-CD8 and PE-Cy7-anti CD3 were used to identify T cells isolated from the B16F10 tumors. These TILs were also costained with FITC-anti-IFNγ, and PE-anti-CD107a. All antibodies were obtained from eBioscience, San Diego, Calif.

B16-F10 melanoma cells [2] = test: Example 7: prophylactic vaccination, B16-F10 melanoma; format: in vivo, C57BL/6J mice; design: concentration or dose not given beside the values; settings: B16-F10 tumor lysates and GM-CSF, with or without TLR agonist; challenge at day 14
dendritic cells [3] = test: Example 7: DC recruitment and activation in matrices with GM-CSF and TLR agonists (FACS, day 7); format: in vivo, C57BL/6J mice; settings: with GM-CSF
From the text: The cell suspensions were then poured through a 40 μm cell strainer to isolate cells from scaffold particles and the cells were pelleted and washed with cold PBS and counted using a Z2 coulter counter (Beckman Coulter). To assess, DC infiltration and activation, subsets of the total cell population isolated from PLG matrices were then stained with primary antibodies (BD Pharmingen, San Diego, Calif.) conjugated to fluorescent markers to allow for analysis by flow cytometry. APC-conjugated CD11c (dendritic cell marker), FITC-conjugated MHCII and PE-conjugated CD86 (B7, costimulatory molecule) stains were conducted for DC recruitment and activation analysis. To further delineate the presence of specific DC subsets, cells were also stained with APC-conjugated CD11c and PE-conjugated PDCA-1 (plasmacytoid DC marker) or APC-conjugated CD11c and PE-conjugated CD8 (CD8 DCs). To assess T-cell infiltration PE-Cy7 conjugated CD3 stains were performed in conjunction with APC-conjugated CD8a (CD8 T cells), and PE-conjugated FoxP3 (Treg) and analyzed with flow cytometry. Cells were gated according to single positive FITC, APC and PE stainings and using isotype controls. The percentage of cells staining positive for each surface antigen was recorded. To examine the ability of PLG matrices to recruit and activate dendritic cells in vivo, matrices delivering GM-CSF in combination with danger signals were implanted subcutaneously into the backs of C57BL/6J mice. The magnitude of DC infiltration and activation into the matrices was determined by FACS analysis of cell populations isolated from the polymeric material after 7 days.

dendritic cells [4] = test: Example 8: DC recruitment and activation in cytokine loaded PLG matrices (FACS, day 7); format: in vivo, C57BL/6J mice; settings: for DC recruitment relative to blank PLG matrices: day 7
Description: To analyze DC recruitment by FACS analysis, scaffolds were excised and the ingrown tissue was digested into single cell suspensions using a collagenase solution (Worthingtion, 250 U/ml) that was agitated at 37° C. for 45 minutes. The cell suspensions were then poured through a 40 μm cell strainer to isolate cells from scaffold particles and the cells were pelleted and washed with cold PBS and counted using a Z2 coulter counter (Beckman Coulter). To assess, DC infiltration and activation, subsets of the total cell population isolated from PLG matrices were then stained with primary antibodies (BD Pharmingen, San Diego, Calif.) conjugated to fluorescent markers to allow for analysis by flow cytometry. APC-conjugated CD11c (dendritic cell marker), FITC-conjugated MHCII and PE-conjugated CD86 (B7, costimulatory molecule) stains were conducted for DC recruitment and activation analysis. To delineate the presence of the plasmacytoid DC subset, cells were also stained with APC-conjugated CD11c and PE-conjugated PDCA-1 (plasmacytoid DC marker). Cells were gated according to single positive FITC, APC and PE stainings using isotype controls. The percentage of cells staining positive for each surface antigen was recorded.

[5] = test system: TRP-2-specific cytotoxic T lymphocytes; test: Example 8: TRP-2-specific cytotoxic T lymphocytes in spleens (Day 10); design: species or system C57BL/6J mice; settings: mouse, in vivo
IL-12p70 and IFN-γ = settings: tumor lysate and CpG-ODN
Description: To determine the in vivo IL-12p70 and IFN-γ concentration at the matrix implant site, adjacent tissue was excised and digested with tissue protein extraction reagent at Day 10 after implantation (Pierce). After centrifugation, the concentrations of IL-12 and IFN-γ, in the supernatant were then analyzed with ELISA (R&D systems), according to the manufacturer's instructions. To determine the generation of TRP-2-specific cytotoxic T lymphocytes, single cell suspensions were prepared at Day 10 from the spleens of mice immunized with PLG vaccines. These cells were initially stained with PE-H-2Kb/TRP2 pentamers (Sigma Aldrich), and subsequently stained with FITC-anti-CD8 and PE-CY7 CD3 mAb (mAb (BD Pharmingen, San Diego) before being analyzed using flow cytometry.

[6] = test system: bone marrow derived dendritic cells; test: Example 8: transwell chemotaxis and chemokinesis of bone marrow derived DCs; format: cell-based, C57BL/6 mice; settings: 12 h; for DC chemotaxis, migration higher than control condition: 500 ng/ml in bottom wells; for DC chemokinesis, increase in number of migrated cells: homogenous cytokine 500 ng/ml
Description: Primary bone-marrow-derived dendritic cells (BMDCs) were flushed from the femurs of C57BL/6 mice and cultured in 100-mm bacteriological petri dishes (Falcon number 1029/Becton Dickinson). Cell culture medium RPMI-1640 (R10) (Sigma) was supplemented with 1% Penicillin-Streptomycin (Invitrogen), 2 mM 1-Glutamine (Invitrogen), 50 μM 2-mercaptoethanol (Sigma) and 10% heat-inactivated fetal bovine serum (FBS, Invitrogen). At day 0, bone marrow leukocytes were seeded at 2×10^6 cells per 100-mm dish in 10 ml R10 medium containing 20 ng/nil granulocyte-macrophage colony-stimulating factor (GM-CSF) (Peprotech). At day 3, another 10 ml R10 medium containing 20 ng/mL GM-CSF was added. to the plates. At days 6 and 8, half of the culture supernatant was collected and centrifuged, the cell pellet was resuspended in 10 ml fresh R10 containing 20 ng/mL GM-CSF, and placed back into the original plate. The non-adherent cell population in the culture supernatant was used between days 8 and 12 for all the experiments.
Transwell migration studies were performed by plating bone marrow derived dendritic cells in the top well of 6.5 mm transwell dishes (Costar, Cambridge, Mass.) with a pore size of 5 μm. The chemotactic effects of GM-CSF, FL (Flt3), and CCL20 on the migration of BMDCs was assessed by placing 500 ng/ml of recombinant murine GM-CSF, FL or CCL20 (Peprotech, Rocky Hill, N.J.) in the bottom wells and 3×10^5 DCs in the top wells. For chemokinesis studies, the concentration of cytokine in each compartment was equal at 500 ng/ml and 3×10^5 DCs were added to the top wells. The number of cells that migrated from the top well to the bottom well through the porous membrane was counted at the end of 12 h to quantify migration. Cells that had migrated to the bottom well were collected by treatment with 0.25% trypsin-0.03% ethylenediaminetetraacetic acid (EDTA, Invitrogen) and counted with a Z2 coulter counter (Beckman Coulter, Inc).

B16-F10 melanoma cells [7] = test: Example 8: therapeutic vaccination, B16-F10 melanoma; format: in vivo, C57BL/6J mice; settings: vaccinated three days after tumor challenge
Description: PLG scaffolds containing B16-F10 melanoma tumor lysates, 100 μg CpG-ODN in combination with 3 μg GM-CSF, Flt3L or CCL20 were implanted subcutaneously into the lower left flank of C57BL/6J mice to act as cancer vaccines. To assess PLG vaccine efficacy in the therapeutic setting, C57/BL6J mice were challenged with a subcutaneous injection of 5×10^5 B16-F10 melanoma cells (ATCC, Manassas, N.J.) in the back of the neck, and 3 days after tumor challenge PLG vaccines were implanted subcutaneously into the lower left flank. Animals were monitored for the onset of tumor growth (approximately 1 mm^3) and sacrificed for humane reasons when tumors grew to 20-25 mm (longest diameter).

[8] = In vitro release / retention of GM-CSF, cytokines and TLR agonists from PLG scaffolds; format: physicochemical; settings: for incorporated cytokine released from scaffolds: by day 4, in vitro; for daily release of protein: over the next 23 days after day 4
Description: To determine the incorporation efficiency of CpG-ODN incorporation, PLG scaffolds were prepared with 50 ug of CpG-ODN and digested in 1 ml of chloroform (Sigma Aldrich, and washed with 2 mls of aqueous buffer. The aqueous phase was isolated and the amount of CpG-ODN incorporated was determined by absorbance readings (260/280 and 260/230 ratios calculated at 0.2 mm pathlength) using a Nanodrop instrument, ND1000 (Nanodrop technologies, Wilmington, Del.). Similarly, to determine CpG-ODN release kinetics CpG-ODN loaded scaffolds were placed in 1 ml of Phosphate Buffer Solution (PBS) in an incubator (37° C.). At various timepoints, the PBS release media was collected and replaced with fresh media. The total amount of CpG-ODN incorporated into PLG scaffolds and released into PBS over time was analyzed and recorded.

Molecule | complete tumor regression, fraction of vaccinated animals (B16-F10 melanoma cells [1]; mouse, in vivo) | effect on IFN-α concentration at vaccine site (IL-12p70) | increase in IFNγ(+), CD107a(+) TILs in comparison to controls (B16-F10 tumors) [fold] | survival rate (B16-F10 melanoma cells [2]) [%] | CD8(+) DCs at implant site, higher than controls (dendritic cells [3]) | CD11c(+) cells positive for MHCII(+) and CD86(+), of total cells recruited (dendritic cells [3]) [%] | enhancement of total number of recruited DCs compared to GM-CSF delivery alone (dendritic cells [3]) [fold] | increase in total number of activated DCs relative to control matrices (dendritic cells [3]) | DC recruitment relative to blank PLG matrices (dendritic cells [4]) [fold] | resident CD11c(+)PDCA-1(+) pDCs (dendritic cells [4]; in combination with CpG-ODN) | increase in local concentration of IFN-γ over control scaffolds (IL-12p70 and IFN-γ) | increase in local concentration of IL-12 over control scaffolds (IL-12p70 and IFN-γ) [fold] | DC chemotaxis, migration higher than control condition [6] | DC chemokinesis, increase in number of migrated cells [6] | long-term survival rate (B16-F10 melanoma cells [7]) [%] | incorporated cytokine released from scaffolds [8] [%] | daily release of protein [8] | also measured
monophosphoryl lipid A [MPLA] | did not cause tumors to completely regress | no effect | ~1.4 | 80 | approximately 5 fold | ~19 | 1.9 | approximately 15 fold | – | – | – | – | – | – | – | – | – | increase in mean survival time over controls (B16-F10 melanoma cells [1]; vaccinated at days 9 and 19): ~1.5 fold; IL-12 concentration lower than CpG-ODN and P(I:C) (IL-12p70): 2 fold; higher levels of TNF-α (IL-12p70): 4 fold
polyinosinic:polycytidylic acid [P(I:C)] | over a third | elevated levels | ~3.1 | 70 | approximately 5 fold | ~28 | 2.2 | ~20 fold | – | – | – | – | – | – | – | – | – | size of tumors that completely regressed / were eradicated (B16-F10 melanoma cells [1]; mouse, in vivo): 35 mm^2; long term survival of mice (B16-F10 melanoma cells [1]; vaccinated at days 9 and 19): 33%
B1 | – | – | – | – | – | – | – | – | 2.5 | over 160,000 | 13 fold | 8 | no effect | no effect | 75 | ~36 | approximately 0.9% | pDCs of total cells resident in scaffolds (dendritic cells [4]; in combination with CpG-ODN): approximately 22%; Trp2 specific CTLs in spleens, higher than control vaccines [5]: approximately 5 fold
B2 | – | – | – | – | – | – | – | – | 2.5 | approximately 110,000 | no effect | 2 | no effect | no effect | 62 | ~26 | approximately 0.9% | –

— US10568949B2, “Method of eliciting an anti-tumor immune response with controlled delivery of TLR agonists in porous polymerlc devices” (President and Fellows of Harvard College, priority 2008, dated 2020)
